Laboratory results as given in patent publication US20250032476A1, “ALPHA-2A ADRENERGIC RECEPTOR MODULATORS AND USES THEREOF” (The Regents of the University of California, priority 2021, published 2025).
Where “and” joins values, the source holds several entries; their conditions need not be identical. Equal values may be shown once. Read-outs that look alike come from different tables or passages of the source.

How the values were obtained:
human α2AAR [1] = target: T1, human α2AAR (Homo sapiens (Human), UniProt P08913); assay: Radioligand competition binding to human α2AAR (HEK293T membranes, [3H]RX82,1002); settings: human α2AAR
T1 sequence (P08913 whole entry): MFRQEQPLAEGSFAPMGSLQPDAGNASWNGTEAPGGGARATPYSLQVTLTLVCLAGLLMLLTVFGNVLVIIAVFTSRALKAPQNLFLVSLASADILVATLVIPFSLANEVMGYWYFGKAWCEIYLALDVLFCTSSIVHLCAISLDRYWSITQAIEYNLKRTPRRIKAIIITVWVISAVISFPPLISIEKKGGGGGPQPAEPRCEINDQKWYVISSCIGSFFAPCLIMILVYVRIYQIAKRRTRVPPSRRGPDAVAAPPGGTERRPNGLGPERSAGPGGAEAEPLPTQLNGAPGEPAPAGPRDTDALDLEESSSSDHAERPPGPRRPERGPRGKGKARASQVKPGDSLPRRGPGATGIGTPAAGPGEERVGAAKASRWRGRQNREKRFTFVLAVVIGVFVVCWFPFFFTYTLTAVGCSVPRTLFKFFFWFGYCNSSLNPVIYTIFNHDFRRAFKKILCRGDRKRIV

human α2AAR [2] = target: T1, human α2AAR; assay: Gαi G protein activation, BRET biosensor assay in HEK293T cells; settings: for Emax: HEK-293T
Protocol: (§5) Bioluminescense resonance energy transfer. G protein mediated activation of human α2AAR and D2long was monitored with Gαi1-RLucII (71, 72) together with Gβ1 and Gγ1-GFP10. Arrestin recruitment was performed by enhanced bystander BRET using CAAX-rGFP and β-arrestin-2-RLucII as biosensors (all biosensors are provided from M. Bouvier, Université de Montréal, Canada) (71, 73) in the presence of GRK2 as described (66, 74). In brief, HEK293T cells were transfected with a total amount of 3.3 μg DNA per 10^6 cells using linear polyethyleneimine (PEI, Polysciences, 3:1 PEI:DNA ratio) and transferred into 96-well half-area plates (Greiner, Frickenhausen, Germany) at a density of 10,000 cells per well and incubated for 48 hrs. Medium was exchanged with PBS (Hank's balanced salt solution) and cells were stimulated with ligands at 37° C. for 10 min for Gαi stimulation or arrestin recruitment, respectively.

human α2AAR [3] = target: T1, human α2AAR; assay: DiscoverX HitHunter cAMP G-protein activation assay; settings: read-out: Gi/o Emax
Protocol: DiscoverX HitHunter cAMP G-protein activation assay. […] Freezer stock cAMP Hunter cell lines were expanded, then seeded in a total volume of 20 uL into white walled, 384-well microplates and incubated at 37° C. prior to testing. For agonist determination, cells were incubated with compound samples in the presence of EC80 forskolin to induce response. Media was aspirated from cells and replaced with 15 uL 2:1 HBSS/10 mM Hepes: cAMP XS+Ab reagent. Intermediate dilution of sample stocks was performed to generate 4× sample in assay buffer containing 4× EC80 forskolin. […] Finally assay vehicle concentration was 1%. After sample incubation assay signal was generated through incubation with 20 uL cAMP XS+ED/CL lysis cocktail for one hour followed by incubation with 20 uL cAMP XS+EA reagent for three hours at room temperature. Microplates were read following signal generation with a PerkinElmer Envision Instrument for chemiluminescent signal detection. Compound activity was analyzed using CBIS data analysis suite. For Gi agonist mode, percentage activity is calculated using the following formula: % Activity=100%×(1−(mean RLU of test sample−mean RLU of MAX control)/(mean RLU of vehicle control−mean RLU of MAX control)). […] Each measurement was done in duplicate.
DiscoverX HitHunter cAMP G-protein activation assay. […] Freezer stock cAMP Hunter cell lines were expanded, then seeded in a total volume of 20 μL into white walled, 384-well microplates and incubated at 37° C. prior to testing. For agonist determination, cells were incubated with compound samples in the presence of EC50 forskolin to induce response. Media was aspirated from cells and replaced with 15 μL 2:1 HBSS/10 mM Hepes: cAMP XS+Ab reagent. Intermediate dilution of sample stocks was performed to generate 4× sample in assay buffer containing 4× EC80 forskolin. […] Finally assay vehicle concentration was 1%. After sample incubation assay signal was generated through incubation with 20 μL cAMP XS+ED/CL lysis cocktail for one hour followed by incubation with 20 μL cAMP XS+EA reagent for three hours at room temperature. Microplates were read following signal generation with a PerkinElmer Envision Instrument for chemiluminescent signal detection. Compound activity was analyzed using CBIS data analysis suite. For Gi agonist mode, percentage activity is calculated using the following formula: % Activity=100%×(1−(mean RLU of test sample−mean RLU of MAX control)/(mean RLU of vehicle control−mean RLU of MAX control)). […] Each measurement was done in duplicate.

human α2AAR [4] = target: T1, human α2AAR; assay: β-arrestin-2 recruitment, BRET biosensor assay in HEK293T cells; settings: HEK-293T
Protocol: as §5

[5] = target: T2, ALPHA-2A ADRENERGIC RECEPTOR (Homo sapiens (Human), UniProt P08913); assay: Gi recruitment (G protein); assay type: cell-based; settings: for functional classification (agonist / weak agonist): Table 6, result in words
T2 sequence (P08913 whole entry): as above

α2AAR F427^7.39 mutant = α2AAR F427^7.39 mutant (Homo sapiens (Human), UniProt P08913, F427A); assay: Gi activation (BRET) at α2AAR F427^7.39 mutant; assay type: cell-based
α2AAR F427^7.39 mutant, sequence (P08913 whole entry F427A): as the sequence (P08913 whole entry) above, with F427A counted along it
Protocol: (§1) Investigating the sensitivity of selected ligands to the receptor mutants α2AAR-D128^3.32A, α2AAR-D128^3.32T, α2AAR-D128^3.32L, α2AAR-S215^5.42A, α2AAR-Y409^6.55A, α2AAR-Y409^6.55T, α2AAR-Y409^6.55F, α2AAR-F427^7.39F, α2AAR-Y431^7.43A, and α2AAR-Y431^7.43F was determined by monitored G protein stimulation as described above transfecting the appropriate receptor together with Gαi1-RLucII and Gβ1/Gγ1-GFP10. […] Three to ten experiments were done in duplicate.
(§2) The sensitivity of selected ligands to the receptor mutants α2AAR-D128^3.32A, α2AAR-D128^3.32T, α2AAR-D128^3.32L, α2AAR-S215^5.42A, α2AAR-Y409^6.55A, α2AAR-Y409^6.55T, α2AAR-Y409^6.55F, α2AAR-F427^7.39F, α2AAR-Y431^7.43A, and α2AAR-Y431^7.43F was monitored by G protein activation as described above transfecting the appropriate receptor together with Gαi1-RLucII and Gβ1/Gγ2-GFP10. […] Similarly, the effect of the α2AAR-D128^3.32A, α2AAR-S215^5.42A, α2AAR-Y409^6.55A, α2AAR-Y409^6.55F, α2AAR-F427^7.39F, α2AAR-Y431^7.43A, and α2AAR-Y431^7.43F mutations on arrestin recruitment was evaluated as described above transfecting the appropriate receptor together with CAAX-rGFP, GRK2 and β-arrestin-2-RLucII. Data was analyzed as ligand induced changes in BRET compared to vehicle (deltaBRET). Three to seven experiments were done in duplicate.

[6] = Pharmacokinetics in mice (plasma, brain, CSF); assay type: in vivo; settings: I.P. 10 mg/kg
Protocol: Pharmacokinetics. Pharmacokinetic experiments were performed by Bienta (Enamine Biology Services) in accordance with Enamine pharmacokinetic study protocols and Institutional Animal Care and Use Guidelines (protocol number 1-2/2020). […] In each compound study, nine time points (5, 15, 30, 60, 120, 240, 360, 480 and 1440 min) were collected, each of the time point treatment group included 3 animals. There was also a control group of one animal. In the ‘9087, ‘7075, ‘4622 studies, male C57BL/6N mice were used, for PS75 CD-1 mice, and for ‘2998 male Balb/cAnN mice. For all compound studies the animals were randomly assigned to the treatment groups before the pharmacokinetic study; all animals were fasted for 4 h before dosing. For injections, ‘9087 was dissolved in Captisol—water (40%:60%, w/v), ‘4622 was dissolved in a 20% Kolliphor HS—physiological saline solution, and ‘7075, PS75, and ‘2998 were dissolved in a 20% 2-HPBCD—aqueous solution. The batches of working formulations were prepared 10 minutes prior to the in vivo study.
(§3) Mice were injected i.p. with 2,2,2-tribromoethanol at 150 mg/kg prior to drawing CSF and blood. CSF was collected under a stereomicroscope from cisterna magna using 1 mL syringes. Blood collection was performed from the orbital sinus in microtainers containing K3EDTA. Animals were sacrificed by cervical dislocation after the blood samples collection. Blood samples were centrifuged 10 min at 3000 rpm. Brain samples (right lobe) were weighed and transferred into 1.5 ml tubes. All samples were immediately processed, flash-frozen and stored at −70° C. until subsequent analysis.
Plasma samples (40 μL) were mixed with 200 μL of internal standard (IS) solution. After mixing by pipetting and centrifuging for 4 min at 6000 rpm, 4 μL of each supernatant was injected into the LC-MS/MS system. Solutions of internal standards were used to quantify compounds in the plasma samples. […] After this, the samples were centrifuged for 4 min at 14,000 rpm, and supernatant was injected into LC-MS/MS system. CSF samples (2 μL) were mixed with 40 μL of an internal stock solution. After mixing by pipetting and centrifuging for 4 min at 6,000 rpm, 5 μL of each supernatant was injected into LC-MS/MS system.
(§4) Analyses of plasma, brain and CSF samples were conducted at Enamine/Bienta. The concentrations of compounds in plasma and brain samples were determined using high performance liquid chromatography/tandem mass spectrometry (HPLC-MS/MS). Data acquisition and system control was performed using Analyst 1.5.2 software (AB Sciex, Canada). […] Pharmacokinetic data analysis was performed using noncompartmental, bolus injection or extravascular input analysis models in WinNonlin 5.2 (PharSight).
as §3, with “mL” for “ml”
as §4
Additional pharmacokinetic experiments were performed by Sai Life Sciences (Hyderabad, India) in accordance with the Sai Study Protocol SAIDMPK/PK-22-04-0340. […] Testing was done in C57BL/6 mice.

SNI mice = assay: Spared-nerve injury (SNI) model of neuropathic pain, von Frey mechanical thresholds; assay type: in vivo
Protocol: Spared-nerve injury (SNI) model of neuropathic pain. Under isoflurane anesthesia, two of the three branches of the sciatic nerve were ligated and transected distally, leaving the sural nerve intact. Behavior was tested 7 to 14 days after injury and in situ hybridization was performed one week post-injury.

CFA mice = assay: Complete Freund's Adjuvant (CFA) inflammatory pain model, Hargreaves test; settings: mouse, in vivo
Protocol: The CFA model of chronic inflammation was induced as described previously (96). Briefly, CFA (Sigma) was diluted 1:1 with saline and vortexed for 30 minutes. When fully suspended, we injected 20 μL of CFA into one hindpaw. Heat thresholds were measured before the injection (baseline) and 3 days after using the Hargreaves test.
The CFA model of chronic inflammation was induced as described previously (100). Briefly, CFA (Sigma) was diluted 1:1 with saline and vortexed for 30 minutes. When fully suspended, we injected 20 μL of CFA into one hindpaw. Heat thresholds were measured before the injection (baseline) and 3 days after using the Hargreaves test.

mice = assay: Rotarod motor test (motor impairment and sedation); assay type: in vivo; settings: equi-analgesic doses (DEX: higher doses)
[7] = target: T2, ALPHA-2A ADRENERGIC RECEPTOR; assay: Arrestin recruitment; assay type: cell-based; settings: Tables 7-9
α2AAR-Y431^7.43A/F = α2AAR-Y431^7.43A/F (Homo sapiens, UniProt P08913, Y431A); assay: Gi activation (BRET) at α2AAR Y431^7.43 mutants; assay type: cell-based
Protocol: as §1, §2

[8] = mean ± SEM (Table 3), read-out: Ki
[9] = Gi recruitment, Table 6, read-out: EC50
[10] = Gi recruitment, Table 6, read-out: Emax (%)
[11] = Gi EC50 ± SE, BRET biosensor, human α2AAR (Table 3)
[12] = Gi recruitment, Tables 7-9, read-out: G protein Emax (%)

SMILES: c1ccc(Nc2cncc3ccccc23)cc1
- Ki (human α2AAR [1]; [8]): > 10000 nM
- Emax (human α2AAR [2]; read-out: Gi Emax @ 0.1 mM): 57%

SMILES: Nc1ccc(Nc2cncc3ccccc23)cc1
- Ki (human α2AAR [1]; [8]): 4600 ± 2100 nM
- Emax (human α2AAR [2]; read-out: Gi Emax ± SEM): < 5%

SMILES: c1ccc2c(Oc3ccncc3)cccc2c1
- Ki (human α2AAR [1]; [8]): 1800 ± 730 nM
- Emax (human α2AAR [2]; read-out: Gi Emax @ 0.1 mM): 43%

SMILES: c1ccc2c(Nc3ccncc3)ncnc2c1
- Ki (human α2AAR [1]; [8]): 6600 ± 1800 nM
- Emax (human α2AAR [2]; read-out: Gi Emax ± SEM): < 5%

SMILES: Brc1c(NC2=NCCN2)ccc2nccnc12 [Brimonidine, brimonidine, reference compound]
- Emax (human α2AAR [3]): 107 ± 7%

SMILES: Clc1cccc(Cl)c1N=C1NCCN1 [CLON, clonidine, reference compound]
- Emax (human α2AAR [2]; read-out: Gαi Emax): 115 ± 4%
- Emax (human α2AAR [4]; read-out: β-arrestin-2 Emax): 41 ± 3%

SMILES: Clc1ncc2ccccc2c1Nc1ccncc1 [Compound 1718, 3-chloro-N-(pyridin-4-yl)isoquinolin-4-amine]
- Ki (human α2AAR [1]; [8]): 22 ± 6.7 nM
- functional classification (agonist / weak agonist) ([5]; Gi recruitment): agonist
- EC50 [5, 9]: 8 nM
- Emax [5, 10]: 45%
- EC50 (human α2AAR [2]; [11]): 14 nM
- Emax (human α2AAR [2]; read-out: Gi Emax ± SEM): 47%
- Emax (human α2AAR [4]; read-out: β-Arr-2 Emax): < 5%

SMILES: C1=C(c2ccc3c(c2)CC3)CNCC1 [Compound 4622, 5-(Bicyclo[4.2.0]octa-1,3,5-trien-3-yl)-1,2,3,6-tetrahydropyridine]
- Ki (human α2AAR [1]; mean ± s.e.m., read-out: Ki for α2AAR): 12 ± 3.6 nM
- Gi activity at F427^7.39 substitution (α2AAR F427^7.39 mutant): eliminated
- half-life ([6]; C57BL/6N ('9087, '7075, '4622), CD-1 (PS75), mouse, CSF, ip, read-out: T ½ CSF (converted)): 870 min
- AUC Brain [6]: 1160000 ng·min/mL
- AUC CSF [6]: 18400 ng·min/mL
- Cmax Brain [6]: 16200 ng/mL
- Cmax CSF [6]: 44.2 ng/mL
- half-life ([6]; mouse, brain, ip, read-out: T ½ Brain (converted)): 52.8 min
- AUC ([6]; mouse, plasma, ip): 567 ng·h/mL
- Cmax ([6]; mouse, plasma, ip): 620 ng/mL
- half-life ([6]; mouse, plasma, ip, read-out: T ½ Plasma (converted)): 60.6 min
- Effect of atipamezole on the agonist's effect in SNI mice (SNI mice; atipamezole 2 mg/kg, 15 minutes prior): reversed by atipamezole
- Mechanical thresholds / anti-allodynic effect in SNI mice (SNI mice; systemic injection): exhibited anti-allodynic effects
- Thermal latencies / anti-hyperalgesic effect in CFA model (CFA mice): exhibited anti-hyperalgesic effects
- Motor impairment / sedation in rotarod test (mice): slight motor impairment
- EC50 [5]: 45 nM
- Emax [5, 12]: 76%
- Emax [7]: < 5%
- EC50 (human α2AAR [2]; Gαi EC50, BRET biosensor, HEK293T, human α2AAR): 9.7 ± 2.4 nM
- Emax (human α2AAR [2]; read-out: Gαi Emax): 74 ± 4%
- Emax (human α2AAR [4]; read-out: β-arrestin-2 Emax): < 5%

SMILES: c1cc(Nc2ccncc2)c2sccc2c1 [Compound 4914]
- Ki (human α2AAR [1]; [8]): 7.2 ± 1 nM
- EC50 [5, 9]: 6.8 nM
- Emax [5, 10]: 76%
- EC50 (human α2AAR [2]; [11]): 9.1 nM
- Emax (human α2AAR [2]; read-out: Gi Emax ± SEM): 77%
- Emax (human α2AAR [4]; read-out: β-Arr-2 Emax): < 5%

SMILES: Cc1cccc([C@H](C)c2cnc[nH]2)c1C [DEX, dexmedetomidine, reference compound]
- Motor impairment / sedation in rotarod test (mice): significant impairment and complete sedation at higher doses
- Emax (human α2AAR [3]): 76 ± 3%
- Emax (human α2AAR [2]; read-out: Gαi Emax): 105 ± 4%
- Emax (human α2AAR [4]; read-out: β-arrestin-2 Emax): 60 ± 3%

SMILES: COc1ccc2cccc(Nc3ccncc3)c2c1 [PS71]
- Ki (human α2AAR [1]; [8]): 240 ± 120 nM
- functional classification (agonist / weak agonist) ([5]; Gi recruitment): agonist
- EC50 [5, 9]: 89 nM
- Fold reduced Gi activity compared to ‘5879 (human α2AAR [2]): 15 fold and 16 fold
- EC50 (human α2AAR [2]; [11]): 100 nM
- Emax (human α2AAR [2]; read-out: Gi Emax ± SEM): 85%
- Emax (human α2AAR [4]; read-out: β-Arr-2 Emax): < 5%

SMILES: O=C1CCc2c(cccc2Nc2ccncc2)N1 [PS84]
- Ki (human α2AAR [1]; [8]): 500 ± 87 nM
- functional classification (agonist / weak agonist) ([5]; Gi recruitment): agonist
- EC50 [5, 9]: 450 nM
- EC50 (human α2AAR [2]; [11]): 840 nM
- Emax (human α2AAR [2]; read-out: Gi Emax ± SEM): 37%

SMILES: O=C1NCCc2c(Nc3ccncc3)cccc21 [PS86]
- Ki (human α2AAR [1]; [8]): 1200 ± 560 nM
- functional classification (agonist / weak agonist) ([5]; Gi recruitment): agonist
- EC50 [5, 9]: 3200 nM
- EC50 (human α2AAR [2]; [11]): 3400 nM
- Emax (human α2AAR [2]; read-out: Gi Emax ± SEM): 91%

SMILES: NC1CCc2ccc(C3=CCCNC3)cc21 (stereo not drawn) [TP92]
- G protein effect at 100 μM ([5]; at 100 μM): 18% at 100 μM
- Emax [7]: < 5%

SMILES: Nc1ccnc(Cc2ccc(F)cc2)c1 [TP94, 2-(4-Fluorobenzyl)pyridin-4-amine]
- EC50 ([5]; Gi recruitment, Tables 7-9, read-out: G protein EC50): 5000 nM
- Emax [5, 12]: 19%
- Emax [7]: < 10%

SMILES: CC1=CCc2cc(C3=CCCNC3)ccc21 [TP97, 5-(3-Methyl-1H-inden-6-yl)-1,2,3,6-tetrahydropyridine]
- Emax [5, 12]: < 10%
- Emax [7]: < 5%

SMILES: C=C(c1ccc(C(F)(F)F)cc1)c1cc(N)ccn1 [TP101, 2-(1-(4-(Trifluoromethyl)phenyl)vinyl)pyridin-4-amine]
- Emax [5, 12]: < 5%
- Emax [7]: < 5%

SMILES: C=C1CCc2cc(C3=CCCNC3)ccc21 [TP105, 5-(1-Methylene-2,3-dihydro-1H-inden-5-yl)-1,2,3,6-tetrahydropyridine]
- Emax [5, 12]: < 5%
- Emax [7]: < 5%

SMILES: NC[C@H](O)c1ccc(O)c(O)c1 [norepinephrine]
- Gi signaling at Y431^7.43A (α2AAR-Y431^7.43A/F): essentially eliminated
